Source: patent US20030129190A1, “FX activity in cells in cancer, inflammatory responses and diseases and in autoimmunity” (Ramot University Authority for Applied Research & …, priority 1999, published 2003)

Tested on: E-selectin-IgG chimera
Settings: 5 mM EDTA; shear stress 1 dyn/cm^2
Experimental: Cells (10^6/ml) were perfused at room temperature through the chamber at a shear stress of 1 dyn/cm^2 in binding medium alone or in the presence of 5 mM EDTA (Erg+EDTA). The number of cells which accumulated and maintained rolling at the end of 1 min of perfusion in two microscopic fields was determined as described in materials and methods. […] After 1 min perfusion, adherent cells were subjected to an abrupt 5-fold increase of shear stress and the number of cells that remained bound for at least 5 sec after the increase of shear was determined. The mean number +/− range of cells accumulated at 1 dyn/cm^2 and of accumulated cells remaining stably bound at 5 dyn/cm^2 on two fields of view are shown for the E48^lo and E48^hi cells. […] Data are representative of four independent experiments.
Cultured IUC cells grown as monolayers were harvested by a 10 min incubation with H/H medium (Hanks Balanced Salt Solution, HBSS (Sigma Israel Chemicals Ltd., Rehovot, Israel), containing BSA (2 mg/ml, fraction V, Sigma) and 10 mM HEPES, pH 7.4), supplemented with 5 mM EDTA at 37 Washed cells were resuspended in the same medium at a concentration of 1×10^7 cells/ml and kept at room temperature until use. Cells were diluted 20 fold into binding medium (H/H supplemented with 2 mM Ca^2+) and immediately perfused through the flow chamber. […]

Q: `O=C(O)CN(CCN(CC(=O)O)CC(=O)O)CC(=O)O` [EDTA] was tested. Which “adhesive interactions of E48^hi cells with E-selectin coated substrate” value did it give?
A: eliminated
